As a reminder, the IC50 is the concentration needed to halve the response being measured.

These results are taken from US20110033461A1, “Combination Therapy for the Treatment of Cancer” (priority 2008, published 2011).

For experiment [1], the system named is HCT116 cells. The experiment in a line: viability-based synergy experiment, C1368 and cetuximab, HCT116 cells. It counts as cell-based, human.
Another experiment deals with DLD1 cells. The experiment in a line: viability-based synergy experiment, C1368 and erlotinib, DLD1 cells. Format: cell-based. The text has this:
(§1) ED refers to the percentage of cell killed at different drug doses.

Experiment [2] has as its system HCT116 cells. The experiment can be described thus: viability-based synergy experiment, C1368 and erlotinib, HCT116 cells. Format: cell-based, human. To be noted: for fold decrease of IC50 value, combination vs drug alone: C1368:erlotinib 1:25 ratio.
Text: as §1

For experiment [3], the system named is HCT116 cells. The experiment in a line: cell cycle analysis of erlotinib-treated HCT116 cells. Format: cell-based, human. The text has this:
Inhibition of Aurora kinase activity is associated with cell cycle arrest.

Read-outs that look alike come from different tables or passages of the source.

As for `O=C(Nc1cccc(Nc2nccc(Nc3cccc(C(F)(F)F)c3)n2)c1)C1CC1` [C1368], the IC50 was determined as 1000 nM with HCT116 cells [1] (cetuximab with C1368, 1:109 ratio, read-out: IC50 value in combination); 2100 nM with HCT116 cells [1] (read-out: IC50 value, drug alone (cetuximab experiment), drug alone); 500 nM in the experiment with DLD1 cells (DLD1 cells, combination treatment with C1368 and erlotinib, read-out: IC50 in combination); 2700 nM in the experiment with DLD1 cells (DLD1 cells, single agent, read-out: IC50, single agent); 500 nM in the experiment with HCT116 cells [2] (HCT116 cells, combination of C1368 and erlotinib, 1:25 ratio, read-out: IC50 value in combination); 2300 nM in the experiment on HCT116 cells [2] (HCT116 cells, treatment with either drug alone, read-out: IC50 value, drug alone). Besides, the “fold decrease of IC50 value, combination vs drug alone” value with HCT116 cells [2] (HCT116 cells) is more than 4 fold.

`C#Cc1cccc(Nc2ncnc3cc(OCCOC)c(OCCOC)cc23)c1` [erlotinib]: the IC50 in the experiment with DLD1 cells (Homo sapiens, DLD-1, read-out: IC50 in combination) amounted to 13800 nM; in the experiment on DLD1 cells (Homo sapiens, DLD-1, DLD1 cells, single agent, read-out: IC50, single agent) it was 71700 nM; in the experiment with HCT116 cells [2] (Homo sapiens, HCT-116, read-out: IC50 value in combination), 12300 nM; in the experiment with HCT116 cells [2] (Homo sapiens, HCT-116, HCT116 cells, treatment with either drug alone, read-out: IC50 value, drug alone) it was 37300 nM. Further, in the experiment on HCT116 cells [2] (HCT116 cells), the “fold decrease of IC50 value, combination vs drug alone” value was more than 3 fold. The “concentration at which there was a reduction in cell number suggesting cell death” value in the experiment with HCT116 cells [3] was more than 50 µM. For the same compound, the “induction of cell cycle arrest” value in the experiment with HCT116 cells [3] is reported as “did not noticeably induce cell cycle arrest”.
